Experimental data reported in publication PMC4453610 (British Journal of Cancer, 2014).

What was measured:
clinical = conditions: human, plasma, oral
[1] = Pharmacokinetic analysis of sorafenib in plasma of patients; type: in vivo, human; conditions: compared with previous studies of 400 mg b.i.d. sorafenib
[2] = Day 1 of Cycle 2 vs Day 5 of Cycle 1
[3] = geometric mean, with vs without sorafenib

Structure (SMILES) | average decrease in t1/2 when co-administered with sorafenib [2] | average decrease of AUC (0–24) when co-administered with sorafenib [2] | average reduction of Cmax when co-administered with sorafenib [2] | AUC(0–24) Ratio cycles 2/1, geometric mean [3] | Cmax Ratio cycles 2/1, geometric mean [3] | AUC(0-t) (clinical; AUC(0–24) Cycle 1, geometric mean, Day 5, Cycle 1, without sorafenib) | AUC(0-t) (clinical; AUC(0–24) Cycle 2, geometric mean, Day 1, Cycle 2, with 400 mg bid sorafenib) | circulating concentrations of sorafenib when dosed in combination with cyclophosphamide and letrozole [1]
O=P1(N(CCCl)CCCl)NCCCO1 (centres unmarked) [cyclophosphamide] | 27% | 29% | 12% | 0.71 | 0.88 | 16700 ng·h/mL | 11900 ng·h/mL | –
CNC(=O)c1cc(Oc2ccc(NC(=O)Nc3ccc(Cl)c(C(F)(F)F)c3)cc2)ccn1 [sorafenib, Sorafenib] | – | – | – | – | – | – | – | not significantly affected
